How the values were obtained:
[1] = humans; cited from earlier work
[2] = test system: patient with chronic obstructive pulmonary disease (COPD); assay: Administration of iodine on activated charcoal to a COPD patient, spirometric evaluation and observed bronchorelaxation; assay type: in vivo, human; conditions: same COPD patient; 50 mg elemental iodine in a gelatin capsule for a few days
Excerpt: A person, had been smoking cigarettes daily for many years, but quit about 10 years ago. The decision to quit smoking was caused by increasing problems from the airways, with repeated episodes of pneumonia and airway obstruction. These symptoms were usually treated with antibiotics, steroids and bronchodilators.
After that, the airway symptoms increased considerably, with month-long episodes of cough and exercise-induced dyspnea.
In the following months the situation continued to worsen with loss of appetite, reduction of weight and severe dyspnea during rest, in spite of maximum treatment with anti-cholinergics, steroids and bronchodilators. The patient now felt desperately ill, and questioned how long they would be able to survive.
The severity of their condition prompted the patient to look for alternative treatments. […] […] […] A renewed spirometric evaluation a few months later confirmed the subjective improvements (FEV1=2.79 L, corresponding to 97.1% of their reference value and PEF=427 L/min, corresponding to 92.5% of their reference value).
The patient has continued to regularly take the combination for more than a year and still experiences the full benefit of it. A temporary discontinuation of the intake for a few days led to the reappearance of many of the symptoms. However, they quickly disappeared upon the resumption of the intake of iodinated activated charcoal. […]

[3] = may cause adverse effects in some individuals; cited from earlier work

| Structure (SMILES) | no-effect level [1] [mg/kg body weight] | bronchorelaxing effect [2] | iodine intake probably safe for the majority of the population [3] |
| --- | --- | --- | --- |
| [Br-].[Na+] [Sodium bromide, sodium bromide] | 4 | – | – |
| II [elemental iodine, iodine] | – | no distinct bronchorelaxing effect was observed | less than or equal to 1,000 mg/day |
